Consider 13 molecules from patent US8648092B2, “Imidazo[1,2-a]pyridine derivatives: preparation and pharmaceutical applications” (MEI Pharma, priority 2005, dated 2014).

Molecules are shown by their SMILES. Some results are limits rather than exact numbers.

The target of assay [1] is HDAC1 enzyme (recombinant GST-HDAC1) (Homo sapiens (Human), UniProt Q13547). As to the kind of experiment: In vitro HDAC assay for determination of IC50 values (BIOMOL fluorescent-based HDAC activity assay). Format: biochemical. The settings on record: Flur de lys substrate, 2 h room temperature, read-out: IC50 (HDAC 1). In outline: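 Recombinant human GST-HDAC1, baculovirus-expressed in SF9 cells and glutathione-purified, tested with a fluorogenic deacetylase substrate; Fluor de Lys developer added for 10 min. Fluorescence at 360 nm excitation/460 nm emission; IC50 fitted from a concentration series.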
HDAC1 enzyme (recombinant GST-HDAC1), sequence (Q13547 whole entry): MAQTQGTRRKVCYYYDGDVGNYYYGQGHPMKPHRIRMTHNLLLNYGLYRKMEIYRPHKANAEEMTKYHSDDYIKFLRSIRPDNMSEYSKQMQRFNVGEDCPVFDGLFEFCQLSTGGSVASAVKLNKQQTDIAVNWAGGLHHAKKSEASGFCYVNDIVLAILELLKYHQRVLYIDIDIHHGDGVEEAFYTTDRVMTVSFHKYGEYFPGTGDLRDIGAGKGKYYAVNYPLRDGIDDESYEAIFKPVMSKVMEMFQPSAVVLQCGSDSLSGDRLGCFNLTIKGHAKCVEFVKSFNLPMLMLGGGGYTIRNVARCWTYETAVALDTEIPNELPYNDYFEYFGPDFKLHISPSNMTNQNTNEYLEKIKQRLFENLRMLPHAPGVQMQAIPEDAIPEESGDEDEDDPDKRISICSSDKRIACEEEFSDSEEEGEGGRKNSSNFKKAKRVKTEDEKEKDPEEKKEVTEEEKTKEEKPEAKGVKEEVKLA

Another assay relates to Colo205 cells. As to the kind of experiment: Cell-based proliferation assay for determination of GI50 values (CyQUANT). The arrangement: species or system human. The settings on record: Homo sapiens. The method, boiled down:
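Colo205 cells in RPMI 1640 with 5% FBS, seeded 5000/well and grown 24 h at 37 °C. Exposure to compound lasted 96 h, with growth read by CyQUANT. GI50 = concentration giving 50% growth inhibition, from dose-response curves.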

In the case of `COCCNc1c(C(C)C)nc2ccc(/C=C/C(=O)NO)cn12` [Compound 7, N-Hydroxy-3-[2-isopropyl-3-(2-methoxy-ethylamino)-imidazo[1,2-a]pyridin-6-yl]-acrylamide], the IC50 in assay [1] came to 2.7 µM. In the assay on Colo205 cells (COLO 205, 96 h treatment), this molecule gave a GI50 of 9.3 µM.

On to `CCN(Cc1c(C(C)(C)C)nc2cc(/C=C/C(=O)NO)ccn12)CC(C)C` [Compound 86, 3-{2-tert-Butyl-3-[(ethyl-isobutyl-amino)-methyl]-imidazo[1,2-a]pyridin-7-yl}-N-hydroxy-acrylamide], for which the IC50 in assay [1] came to 0.57 µM. The molecule further yielded a GI50 in the assay on Colo205 cells (COLO 205, 96 h treatment) of 3.9 µM.

With `CCCN(Cc1c(-c2ccccc2)nc2cc(/C=C/C(=O)NO)ccn12)CC1CC1` [Compound 53, 3-{3-[(Cyclopropylmethyl-propyl-amino)-methyl]-2-phenyl-imidazo[1,2a]pyridin-7-yl}-N-hydroxy-acrylamide], the IC50 in assay [1] was found to be 0.6 µM. The molecule also showed a GI50 in the assay with Colo205 cells (COLO 205, 96 h treatment) of 2.9 µM.

Turning to `CCCCCc1nc2cc(/C=C/C(=O)NO)ccn2c1NCCOC` [Compound 17, (E)-N-hydroxy-3-(3-(2-methoxyethylamino)-2-pentylimidazo[1,2-a]pyridin-7-yl)acrylamide], the half-maximal inhibitory concentration (IC50) in assay [1] is 0.3 µM. Further, in the assay on Colo205 cells (COLO 205, 96 h treatment), the GI50 worked out at 9.9 µM.

Consider `CCCN(Cc1c(-c2ccccc2)nc2cc(/C=C/C(=O)NO)ccn12)C(C)CC` (centres unmarked) [Compound 54, 3-{3-[(sec-Butyl-propyl-amino)-methyl]-2-phenyl-imidazo[1,2-a]pyridin-7-yl}-N-hydroxy-acrylamide], for which the IC50 in assay [1] stood at 1 µM. The molecule also displayed a GI50 in the assay on Colo205 cells (COLO 205, 96 h treatment) of 4.7 µM.

In the case of `CCN(CC)Cc1c(-c2ccccc2)nc2cc(C(=O)NO)ccn12` [Compound 79, 3-Diethylaminomethyl-2-phenyl-imidazo[1,2-a]pyridine-7-carboxylic acid hydroxyamide], the IC50 in assay [1] was more than 10 µM. The GI50 in the assay with Colo205 cells (COLO 205, 96 h treatment) is more than 100 µM.

As for `CCCCc1nc2cc(/C=C/C(=O)NO)ccn2c1CN(CCC)CCCC` [Compound 78, 3-{2-Butyl-3-[(butyl-propyl-amino)-methyl]-imidazo[1,2-a]pyridin-7-yl}-N-hydroxy-acrylamide], the IC50 in assay [1] was 0.09 µM. This molecule also registered a GI50 in the assay on Colo205 cells (COLO 205, 96 h treatment) of 0.58 µM.

As for `CCN(CC)Cc1c(-c2ccccc2)nc2ccc(/C=C/C(=O)NO)cn12` [Compound 103, 3-(3-Diethylaminomethyl-2-phenyl-imidazo[1,2a]pyridin-6-yl)-N-hydroxy-acrylamide], the IC50 in assay [1] is more than 10 µM. The molecule further returned a GI50 with Colo205 cells (COLO 205, 96 h treatment) of 41 µM.

`CCCN(CC)Cc1c(C)nc2cc(/C=C/C(=O)NO)ccn12` [Compound 100, 3-{3-[(Ethyl-propyl-amino)-methyl]-2-methyl-imidazo[1,2-a]pyridin-7-yl}-N-hydroxy-acrylamide]: the IC50 in assay [1] worked out at 0.54 µM. For the same molecule, the GI50 in the assay with Colo205 cells (COLO 205, 96 h, 96 h treatment) was determined as 4.6 µM.

Take `CCCCNCc1c(-c2ccccc2)nc2ccc(/C=C/C(=O)NO)cn12` [Compound 66, 3-(3-Butylaminomethyl-2-phenyl-imidazo[1,2-a]pyridin-6-yl)-N-hydroxy-acrylamide]: in assay [1], the IC50 was more than 10 µM. The molecule also returned a GI50 with Colo205 cells (COLO 205, 96 h treatment) of 55 µM.

As to `CCCCCCc1nc2cc(/C=C/C(=O)NO)ccn2c1NCCC(=O)NCCSC` [Compound 25, 3-{2-Hexyl-3-[2-(2-methylsulfanyl-ethylcarbamoyl)-ethylamino]-imidazo[1,2-a]pyridin-7-yl}-N-hydroxy-acrylamide], the half-inhibitory concentration (IC50) in assay [1] stood at 0.073 µM. The molecule also had a GI50 in the assay with Colo205 cells (COLO 205, 96 h treatment) of 2.1 µM.

For the molecule `O=C(C=Cc1ccc2nc(CCc3ccccc3)c(NCc3ccc4c(c3)OCO4)n2c1)NO` [Compound 2, 3-{3-[(Benzo[1,3]-dioxol-5-ylmethyl)-amino]-2-phenethyl-imidazo[1,2-a]pyridin-6-yl}-N-hydroxyacrylamide], in assay [1], the IC50 was determined as 0.72 µM. The molecule also came in with a GI50 with Colo205 cells (COLO 205, 96 h treatment) of 3.9 µM.

As for `COCCNc1c(CCc2ccccc2)nc2ccc(/C=C/C(=O)NO)cn12` [Compound 5, N-Hydroxy-3-[3-(2-methoxy-ethylamino)-2-phenethyl-imidazo[1,2-a]pyridin-6-yl]-acrylamide], the IC50 in assay [1] was found to be 0.35 µM. The same molecule displayed a 50% growth inhibitory concentration (GI50) in the assay on Colo205 cells (COLO 205, 96 h treatment) of 27 µM.
